## CC(=O)Nc1ccc(OC(=O)c2ccccc2OC(C)=O)cc1
In 1,4-dioxane, 293.15 K
  solubility (mole fraction): 0.00169
In 1,4-dioxane, 298.15 K
  solubility (mole fraction): 0.00204
In 1,4-dioxane, 303.15 K
  solubility (mole fraction): 0.0025
In 1,4-dioxane, 308.15 K
  solubility (mole fraction): 0.00298
In 1,4-dioxane, 313.15 K
  solubility (mole fraction): 0.0035
In 1,4-dioxane, 318.15 K
  solubility (mole fraction): 0.00427
In 2-butanone, 278.15 K
  solubility (mole fraction): 0.0025
In 2-butanone, 283.15 K
  solubility (mole fraction): 0.00267
In 2-butanone, 288.15 K
  solubility (mole fraction): 0.00287
In 2-butanone, 293.15 K
  solubility (mole fraction): 0.00308
In 2-butanone, 298.15 K
  solubility (mole fraction): 0.00333
In 2-butanone, 303.15 K
  solubility (mole fraction): 0.00361
In 2-butanone, 308.15 K
  solubility (mole fraction): 0.00392
In 2-butanone, 313.15 K
  solubility (mole fraction): 0.00429
In 2-butanone, 318.15 K
  solubility (mole fraction): 0.00465
In DMF, 278.15 K
  solubility (mole fraction): 0.0172
In DMF, 283.15 K
  solubility (mole fraction): 0.0182
In DMF, 288.15 K
  solubility (mole fraction): 0.0192
In DMF, 293.15 K
  solubility (mole fraction): 0.0203
In DMF, 298.15 K
  solubility (mole fraction): 0.0215
In DMF, 303.15 K
  solubility (mole fraction): 0.0228
In DMF, 308.15 K
  solubility (mole fraction): 0.0242
In NMP, 278.15 K
  solubility (mole fraction): 0.0209
In NMP, 283.15 K
  solubility (mole fraction): 0.024
In NMP, 288.15 K
  solubility (mole fraction): 0.0272
In NMP, 293.15 K
  solubility (mole fraction): 0.0304
In NMP, 298.15 K
  solubility (mole fraction): 0.0341
In NMP, 303.15 K
  solubility (mole fraction): 0.0378
In NMP, 308.15 K
  solubility (mole fraction): 0.0417
In NMP, 313.15 K
  solubility (mole fraction): 0.0464
In NMP, 318.15 K
  solubility (mole fraction): 0.0512
In acetonitrile, 278.15 K
  solubility (mole fraction): 0.000681
In acetonitrile, 283.15 K
  solubility (mole fraction): 0.000855
In acetonitrile, 288.15 K
  solubility (mole fraction): 0.00105
In acetonitrile, 293.15 K
  solubility (mole fraction): 0.00134
In acetonitrile, 298.15 K
  solubility (mole fraction): 0.00164
In acetonitrile, 303.15 K
  solubility (mole fraction): 0.00199
In acetonitrile, 308.15 K
  solubility (mole fraction): 0.00236
In acetonitrile, 313.15 K
  solubility (mole fraction): 0.00283
In acetonitrile, 318.15 K
  solubility (mole fraction): 0.00339
In ethanol, 278.15 K
  solubility (mole fraction): 0.000158
In ethanol, 283.15 K
  solubility (mole fraction): 0.00021
In ethanol, 288.15 K
  solubility (mole fraction): 0.000265
In ethanol, 293.15 K
  solubility (mole fraction): 0.000326
In ethanol, 298.15 K
  solubility (mole fraction): 0.000403
In ethanol, 303.15 K
  solubility (mole fraction): 0.000486
In ethanol, 308.15 K
  solubility (mole fraction): 0.000589
In ethanol, 313.15 K
  solubility (mole fraction): 0.000733
In ethanol, 318.15 K
  solubility (mole fraction): 0.000907
In ethyl acetate, 278.15 K
  solubility (mole fraction): 0.000392
In ethyl acetate, 283.15 K
  solubility (mole fraction): 0.000519
In ethyl acetate, 288.15 K
  solubility (mole fraction): 0.000651
In ethyl acetate, 293.15 K
  solubility (mole fraction): 0.000789
In ethyl acetate, 298.15 K
  solubility (mole fraction): 0.000983
In ethyl acetate, 303.15 K
  solubility (mole fraction): 0.00119
In ethyl acetate, 308.15 K
  solubility (mole fraction): 0.00141
In ethyl acetate, 313.15 K
  solubility (mole fraction): 0.00169
In ethyl acetate, 318.15 K
  solubility (mole fraction): 0.00198
In isopropanol, 278.15 K
  solubility (mole fraction): 7.6e-05
In isopropanol, 283.15 K
  solubility (mole fraction): 0.000107
In isopropanol, 288.15 K
  solubility (mole fraction): 0.000139
In isopropanol, 293.15 K
  solubility (mole fraction): 0.000178
In isopropanol, 298.15 K
  solubility (mole fraction): 0.000217
In isopropanol, 303.15 K
  solubility (mole fraction): 0.000262
In isopropanol, 308.15 K
  solubility (mole fraction): 0.000323
In isopropanol, 313.15 K
  solubility (mole fraction): 0.000394
In isopropanol, 318.15 K
  solubility (mole fraction): 0.000493
In methanol, 278.15 K
  solubility (mole fraction): 0.000143
In methanol, 283.15 K
  solubility (mole fraction): 0.000182
In methanol, 288.15 K
  solubility (mole fraction): 0.000228
In methanol, 293.15 K
  solubility (mole fraction): 0.000278
In methanol, 298.15 K
  solubility (mole fraction): 0.000337
In methanol, 303.15 K
  solubility (mole fraction): 0.000403
In methanol, 308.15 K
  solubility (mole fraction): 0.000485
In methanol, 313.15 K
  solubility (mole fraction): 0.000601
In methanol, 318.15 K
  solubility (mole fraction): 0.000745
In n-butanol, 278.15 K
  solubility (mole fraction): 0.000179
In n-butanol, 283.15 K
  solubility (mole fraction): 0.000235
In n-butanol, 288.15 K
  solubility (mole fraction): 0.0003
In n-butanol, 293.15 K
  solubility (mole fraction): 0.000375
In n-butanol, 298.15 K
  solubility (mole fraction): 0.000459
In n-butanol, 303.15 K
  solubility (mole fraction): 0.000557
In n-butanol, 308.15 K
  solubility (mole fraction): 0.000683
In n-butanol, 313.15 K
  solubility (mole fraction): 0.000852
In n-butanol, 318.15 K
  solubility (mole fraction): 0.00104
In n-propanol, 278.15 K
  solubility (mole fraction): 8.8e-05
In n-propanol, 283.15 K
  solubility (mole fraction): 0.000128
In n-propanol, 288.15 K
  solubility (mole fraction): 0.000173
In n-propanol, 293.15 K
  solubility (mole fraction): 0.000214
In n-propanol, 298.15 K
  solubility (mole fraction): 0.000264
In n-propanol, 303.15 K
  solubility (mole fraction): 0.000327
In n-propanol, 308.15 K
  solubility (mole fraction): 0.000402
In n-propanol, 313.15 K
  solubility (mole fraction): 0.000496
In n-propanol, 318.15 K
  solubility (mole fraction): 0.000647
In toluene, 278.15 K
  solubility (mole fraction): 1.3e-05
In toluene, 283.15 K
  solubility (mole fraction): 1.8e-05
In toluene, 288.15 K
  solubility (mole fraction): 2.5e-05
In toluene, 293.15 K
  solubility (mole fraction): 3.4e-05
In toluene, 298.15 K
  solubility (mole fraction): 4.3e-05
In toluene, 303.15 K
  solubility (mole fraction): 5.5e-05
In toluene, 308.15 K
  solubility (mole fraction): 6.8e-05
In toluene, 313.15 K
  solubility (mole fraction): 8.6e-05
In toluene, 318.15 K
  solubility (mole fraction): 0.000108
